Assays:
[1] = test system: sandbur (southern sandbur, Cenchrus echinatus); test: Test E pre-/postemergence: sandbur; format: in vivo; details: scale 0 to 100
Excerpt: (§1) Seeds of plant species selected from corn (Zea mays), soybean (Glycine max), velvetleaf (Abutilon theophrasti), lambsquarters (Chenopodium album), poinsettia, wild (wild poinsettia, Euphorbia heterophylla), pigweed, palmer (palmer pigweed, Amaranthus palmeri), waterhemp (common waterhemp, Amaranthus rudis), smartweed (ladysthumb smartweed, Polygonum persicaria), surinam grass (Brachiaria decumbens), crabgrass, large (large crabgrass, Digitaria sanguinalis), crabgrass, Brazil (Brazilian crabgrass, Digitaria horizontalis), panicum, fall (fall panicum, Panicum dichotomiflorum), foxtail, giant (giant foxtail, Setaria faberii), foxtail, green (green foxtail, Setaria viridis), goosegrass (Eleusine indica), johnsongrass (Sorghum halepense), ragweed (common ragweed, Ambrosia elation), barnyardgrass (Echinochloa crus-galli), sandbur (southern sandbur, Cenchrus echinatus), arrowleaf sida (Sida rhombifolia), ryegrass, Italian (Italian ryegrass, Lolium multiflorum), dayflower, (VA) (Virginia dayflower, Commelina virginica), field bindweed (Convolvulus arvensis), cocklebur (common cocklebur, Xanthium strumarium), morningglory (Ipomoea coccinea), nightshade (eastern black nightshade, Solanum ptycanthum), kochia (Kochia scoparia), nutsedge, yellow (yellow nutsedge, Cyperus esculentus) and beggarticks (hairy beggarticks, Bidens pilosa) were planted into a silt loam soil and treated preemergence with test chemicals formulated in a non-phytotoxic solvent mixture which included a surfactant. At the same time, plants selected from these crop and weed species were planted in pots containing a growing medium comprising spaghnum peat moss, vermiculite, wetting agent and starter nutrients and treated with postemergence applications of some of the test chemicals formulated in the same manner. Plants ranged in height from 2 to 18 cm for postemergence treatments (1- to 4-leaf stage).
(§2) Treated plants and controls were maintained in a greenhouse for 14 to 21 days, after which time all species were compared to controls and visually evaluated. Plant response ratings, summarized in Table E, are based on a scale of 0 to 100 where 0 is no effect and 100 is complete control. A dash (-) response means no test result.

[2] = test system: kochia (Kochia scoparia); test: Test E pre-/postemergence: kochia; format: in vivo; details: Preemergence, scale 0 to 100
Excerpt: as §1, §2

[3] = test system: field bindweed (Convolvulus arvensis); test: Test E pre-/postemergence: field bindweed; format: in vivo; details: scale 0 to 100
Excerpt: as §1, §2

[4] = test system: cocklebur (common cocklebur, Xanthium strumarium); test: Test F pre-/postemergence: cocklebur; format: in vivo; details: Preemergence
Excerpt: Seeds of plant species selected from corn (Zea mays), soybean (Glycine max), velvetleaf (Abutilon theophrasti), lambsquarters (Chenopodium album), poinsettia, wild (wild poinsettia, Euphorbia heterophylla), pigweed, palmer (palmer pigweed, Amaranthus palmeri), waterhemp (common waterhemp, Amaranthus rudis), surinam grass (Brachiaria decumbens), crabgrass, Brazil (Brazilian crabgrass, Digitaria horizontalis), panicum, fall (fall panicum Panicum dichotomiflorum), crabgrass, large (large crabgrass, Digitaria sanguinalis), foxtail, giant (giant foxtail, Setaria faberii), foxtail, green (green foxtail Setaria viridis), goosegrass (Eleusine indica), ragweed (common ragweed, Ambrosia elatior), barnyardgrass (Echinochloa crus-galli), sandbur (southern sandbur, Cenchrus echinatus), arrowleaf sida (Sida rhombifolia), ryegrass, Italian (Italian ryegrass, Lolium multiflorum), dayflower, VA (Virginia (VA) dayflower, Commelina virginica), field bindweed (Convolvulus arvensis), cocklebur (common cocklebur, Xanthium strumarium), morningglory (Ipomoea coccinea), nightshade (eastern black nightshade, Solanum ptycanthum), kochia (Kochia scoparia), nutsedge, yellow (yellow nutsedge, Cyperus esculentus), johnsongrass (Sorghum halepense), smartweed (ladysthumb smartweed, Polygonum persicaria), and beggarticks (hairy beggarticks, Bidens pilosa), were planted into a silt loam soil and treated preemergence with test chemicals formulated in a non-phytotoxic solvent mixture which included a surfactant. At the same time, plants selected from these crop and weed species and also pigweed (Amaranthus retroflexus), waterhemp_RES1 (ALS/Triazine resistant common waterhemp, Amaranthus rudis) and waterhemp_RES2 (ALS/HPPD resistant common waterhemp, Amaranthus rudis) were planted in pots containing a planting medium comprising spaghnum peat moss, vermiculite, wetting agent and starter nutrients treated with postemergence applications of some of the test chemicals formulated in the same manner. Plants ranged in height from 2 to 18 cm for postemergence treatments (1- to 4-leaf stage).
as §2

[5] = test system: Oilseed Rape; test: Test C preemergence: oilseed rape; format: in vivo, Brassica napus; details: 125 g ai/ha, scale 0 to 100, 0 no effect, 100 complete control
[6] = test system: Waterhemp; test: Test C postemergence: waterhemp; format: in vivo, Amaranthus rudis
Excerpt: (§3) Seeds of plant species selected from blackgrass (Alopecurus myosuroides), bromegrass, downy (downy bromegrass, Bromus tectorum), foxtail, green (green foxtail, Setaria viridis), ryegrass, Italian (Italian ryegrass, Lolium multiflorum), winter wheat (Triticum aestivum), wild oat (Avena fatua), galium (catchweed bedstraw, Galium aparine), bermudagrass (Cynodon dactylon), surinam grass (Brachiaria decumbens), cocklebur (common cocklebur, Xanthium strumarium), corn (Zea mays), large crabgrass (Digitaria sanguinalis), woolly cupgrass (Eriochloa villosa), foxtail, giant (giant foxtail, Setaria faberii), goosegrass (Eleusine indica), johnsongrass (Sorghum halepense), kochia (Kochia scoparia), lambsquarters (Chenopodium album), morningglory (Ipomoea coccinea), nightshade (eastern black nightshade, Solanum ptycanthum), nutsedge, yellow (yellow nutsedge, Cyperus esculentus), pigweed (Amaranthus retroflexus), ragweed (common ragweed, Ambrosia elation), soybean (Glycine max), common (oilseed) sunflower (Helianthus annuus), Russian thistle (Salsola kali) and velvetleaf (Abutilon theophrasti) were planted into a blend of loam soil and sand and treated preemergence with test chemicals formulated in a non-phytotoxic solvent mixture which included a surfactant.
(§4) At the same time, plants selected from these crop and weed species and also barley (winter barley, Hordeum vulgare), canarygrass (Phalaris minor), chickweed (common chickweed, Stellaria media) windgrass (Apera spica-venti) and deadnettle (henbit deadnettle, Lamium amplexicaule) were planted in pots containing Redi-Earth® planting medium (Scotts Company, 14111 Scottslawn Road, Marysville, Ohio 43041) comprising spaghnum peat moss, vermiculite, wetting agent and starter nutrients and treated with postemergence applications of test chemicals formulated in the same manner. Plants ranged in height from 2 to 18 cm (1- to 4-leaf stage) for postemergence treatments.
as §2, with “13” for “14”, “15” for “21”, “C,” for “E,”

[7] = test system: Oilseed Rape; test: Test C pre-/postemergence: oilseed rape; format: in vivo
Excerpt: as §3, §4
as §2, with “13” for “14”, “15” for “21”, “C,” for “E,”

[8] = test system: Waterhemp; test: Test C preemergence: waterhemp; format: in vivo; details: 62 g ai/ha, scale of 0 to 100, 0 is no effect, 100 is complete control
Excerpt: as §3
as §2, with “13” for “14”, “15” for “21”, “C,” for “E,”

[9] = 16 g ai/ha, scale 0 to 100 (0 no effect, 100 complete control)
[10] = 31 g ai/ha, scale 0 to 100 (0 no effect, 100 complete control)
[11] = 125 g ai/ha, scale 0 to 100, 0 no effect, 100 complete control
[12] = Preemergence, 250 g ai/ha, scale 0 to 100, 0 no effect, 100 complete control
[13] = Postemergence, 31 g ai/ha, scale 0 to 100 (0 no effect, 100 complete control)

Cc1nn(-c2ccc(F)cc2)nc1Cc1ccnc(C(F)(F)F)c1 [Compound 16, 4-[[2-(4-fluorophenyl)-5-methyl-2H-1,2,3-triazol-4-yl]methyl]-2-(trifluoromethyl)pyridine]
Plant response rating: Sandbur ([1]; Preemergence, 8 g ai/ha): 0
Plant response rating: Sandbur ([1]; Preemergence, 16 g ai/ha): 0
Plant response rating: Sandbur ([1]; Preemergence, 31 g ai/ha): 10
Plant response rating: Sandbur ([1]; Preemergence, 62 g ai/ha): 50
Plant response rating: Sandbur ([1]; Preemergence, 125 g ai/ha): 60
Plant response rating: Kochia ([2]; 8 g ai/ha): 0
Plant response rating: Kochia ([2]; 16 g ai/ha): 20
Plant response rating: Kochia ([2]; 31 g ai/ha): 70
Plant response rating: Kochia ([2]; 62 g ai/ha): 100
Plant response rating: Kochia ([2]; 125 g ai/ha): 100
Plant response rating: Field Bindweed ([3]; Preemergence, 8 g ai/ha): 0
Plant response rating: Field Bindweed ([3]; Preemergence, 16 g ai/ha): 0
Plant response rating: Field Bindweed ([3]; Preemergence, 31 g ai/ha): 0
Plant response rating: Field Bindweed ([3]; Preemergence, 62 g ai/ha): 20
Plant response rating: Field Bindweed ([3]; Preemergence, 125 g ai/ha): 50

Cc1nn(-c2ccc(C(F)(F)F)cc2)nc1Cc1ccnc(C(F)(F)F)c1 [Compound 47, 4-[[5-methyl-2-[4-(trifluoromethyl)phenyl]-2H-1,2,3-triazol-4-yl]methyl]-2-(trifluoromethyl)pyridine]
Plant response rating: Sandbur ([1]; Postemergence, 250 g ai/ha): 50
Plant response rating: Sandbur ([1]; Postemergence, 16 g ai/ha): 20
Plant response rating: Sandbur ([1]; Postemergence, 31 g ai/ha): 25
Plant response rating: Sandbur ([1]; Postemergence, 62 g ai/ha): 25
Plant response rating: Sandbur ([1]; Postemergence, 125 g ai/ha): 30
Plant response rating: Sandbur ([1]; Preemergence, 16 g ai/ha): 0
Plant response rating: Sandbur ([1]; Preemergence, 31 g ai/ha): 20
Plant response rating: Sandbur ([1]; Preemergence, 62 g ai/ha): 90
Plant response rating: Sandbur ([1]; Preemergence, 250 g ai/ha): 100
Plant response rating: Kochia ([2]; 16 g ai/ha): 25
Plant response rating: Kochia ([2]; 31 g ai/ha): 35
Plant response rating: Kochia ([2]; 62 g ai/ha): 100
Plant response rating: Kochia ([2]; 125 g ai/ha): 100
Plant response rating: Kochia ([2]; 250 g ai/ha): 100
Plant response rating: Field Bindweed ([3]; Postemergence, 250 g ai/ha): 65
Plant response rating: Field Bindweed ([3]; Postemergence, 31 g ai/ha): 40
Plant response rating: Field Bindweed ([3]; Preemergence, 16 g ai/ha): 25
Plant response rating: Field Bindweed ([3]; Preemergence, 31 g ai/ha): 25
Plant response rating: Field Bindweed ([3]; Preemergence, 62 g ai/ha): 50
Plant response rating: Field Bindweed ([3]; Preemergence, 125 g ai/ha): 85
Plant response rating: Field Bindweed ([3]; Preemergence, 250 g ai/ha): 100

Cc1nn(-c2ccc(F)cc2)nc1Oc1ccnc(C(F)(F)F)c1 [Compound 129, 4-[[2-(4-fluorophenyl)-5-methyl-2H-1,2,3-triazol-4-yl]oxy]-2-(trifluoromethyl)pyridine]
Plant response rating: Sandbur ([1]; Preemergence, 8 g ai/ha): 0
Plant response rating: Sandbur ([1]; Preemergence, 16 g ai/ha): 0
Plant response rating: Sandbur ([1]; Preemergence, 31 g ai/ha): 20
Plant response rating: Sandbur ([1]; Preemergence, 62 g ai/ha): 20
Plant response rating: Sandbur ([1]; Preemergence, 125 g ai/ha): 50
Plant response rating: Kochia ([2]; 8 g ai/ha): 35
Plant response rating: Kochia ([2]; 16 g ai/ha): 35
Plant response rating: Kochia ([2]; 31 g ai/ha): 50
Plant response rating: Kochia ([2]; 62 g ai/ha): 95
Plant response rating: Kochia ([2]; 125 g ai/ha): 95
Plant response rating: Field Bindweed ([3]; Preemergence, 8 g ai/ha): 0
Plant response rating: Field Bindweed ([3]; Preemergence, 16 g ai/ha): 0
Plant response rating: Field Bindweed ([3]; Preemergence, 31 g ai/ha): 0
Plant response rating: Field Bindweed ([3]; Preemergence, 62 g ai/ha): 35
Plant response rating: Field Bindweed ([3]; Preemergence, 125 g ai/ha): 35

Fc1ccc(-n2nc(Cc3ccnc(C(F)(F)F)c3)c(OCC(F)(F)F)n2)cc1 [Compound 142]
Plant response rating, Cocklebur [4, 9]: 0
Plant response rating, Cocklebur [4, 10]: 0
Plant response rating, Cocklebur ([4]; 62 g ai/ha, scale 0 to 100): 0

CCCc1nn(-c2ccc(F)cc2)nc1Cc1ccnc(C(F)(F)F)c1 [Compound 153]
Plant response rating, Oilseed Rape [5]: 98
Plant response rating, Cocklebur [4, 9]: 0
Plant response rating, Cocklebur ([4]; 62 g ai/ha, scale 0 to 100): 0
Plant response rating, Waterhemp [6, 11]: 98
Plant response rating, Oilseed Rape [7, 12]: 98
Plant response rating, Waterhemp [8]: 100

Cc1nn(-c2ccc(C(F)(F)F)c(F)c2)nc1Cc1ccnc(C(F)(F)F)c1 [Compound 162]
Plant response rating, Oilseed Rape [5]: 100
Plant response rating, Cocklebur ([4]; 4 g ai/ha, scale 0 to 100, 0 no effect, 100 complete control): 0
Plant response rating, Cocklebur ([4]; 8 g ai/ha, scale 0 to 100, 0 no effect, 100 complete control): 0
Plant response rating, Cocklebur [4, 10]: 0
Plant response rating, Cocklebur ([4]; 62 g ai/ha, scale 0 to 100): 0
Plant response rating, Waterhemp [6, 11]: 100
Plant response rating, Oilseed Rape [7, 12]: 100
Plant response rating, Waterhemp [8]: 100

CCc1nn(-c2ccc(F)cc2)nc1Oc1ccnc(C(F)(F)F)c1 [Compound 166]
Plant response rating, Oilseed Rape [5]: 90
Plant response rating, Waterhemp [6, 11]: 98
Plant response rating, Oilseed Rape [7, 13]: 5
Plant response rating, Oilseed Rape [7, 12]: 100
Plant response rating, Waterhemp [8]: 100

CCCc1nn(-c2ccc(C(F)(F)F)c(F)c2)nc1Oc1ccnc(C(F)(F)F)c1 [Compound 185]
Plant response rating, Oilseed Rape [5]: 100
Plant response rating, Waterhemp [6, 11]: 95
Plant response rating, Waterhemp ([6]; 250 g ai/ha, scale 0 to 100 (0 no effect, 100 complete control)): 100
Plant response rating, Oilseed Rape [7, 13]: 10
Plant response rating, Oilseed Rape [7, 12]: 100

CCOc1nn(-c2ccc(Br)cc2)nc1Cc1ccnc(C(F)(F)F)c1 [Compound 189]
Plant response rating, Oilseed Rape [5]: 85
Plant response rating, Waterhemp [8]: 100

From patent US9302999B2, “Substituted triazoles as herbicides” (E. I. DU PONT DE NEMOURS AND COMPANY, priority 2012, dated 2016)
